Tests used:
Test in all cases: Bliss excess, mean over the matrix (fraction); higher = more synergy
[1] = system: A3-KAW (B-Cell Non-Hodgkin's Lymphoma)
How it was run: (§1)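 After 24 hours at 37°C and 5% CO2 in 1536-well plates, cells in DMEM/F12 or RPMI plus 10% FBS received two-drug dose matrices for 72 hours. Viability came from CellTiter-Glo 2.0 luminescence and was scaled as inhibition, anchored at 0 by vehicle wells and at 1 by blank wells. Combination Emax is taken as the second-highest inhibition in the matrix, and Bliss excess as the observed combination effect less EA + EB − EA·EB, with EA and EB the single-agent effects.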

[2] = system: A549 (Lung Adenocarcinoma)
How it was run: as §1

[3] = system: BICR22 (Oral Cavity Carcinoma)
How it was run: as §1

[4] = system: CAPAN-2 (Pancreatic Carcinoma)
How it was run: as §1

[5] = system: CCK-81 (Colorectal Carcinoma)
How it was run: as §1

[6] = system: COLO-824 (Breast Carcinoma)
How it was run: as §1

[7] = system: ECC10 (Gastric Carcinoma)
How it was run: as §1

Hs-445 (Non-Cancerous) = system: Hs-445 (Non-Cancerous)
How it was run: as §1

[8] = system: JSC-1 (B-Cell Non-Hodgkin's Lymphoma)
How it was run: as §1

[9] = system: KARPAS-422 (B-Cell Non-Hodgkin's Lymphoma)
How it was run: as §1

LN-405 (Glioblastoma) = system: LN-405 (Glioblastoma)
How it was run: as §1

[10] = system: NCI-H1650 (Lung Adenocarcinoma)
How it was run: as §1

[11] = system: NCI-H1666 (Lung Adenocarcinoma)
How it was run: as §1

[12] = system: NCI-H1693 (Lung Adenocarcinoma)
How it was run: as §1

[13] = system: NCI-H2066 (Squamous Cell Lung Carcinoma)
How it was run: as §1

[14] = system: NCI-H2141 (Small Cell Lung Carcinoma)
How it was run: as §1

[15] = system: SISO (Cervical Carcinoma)
How it was run: as §1

[16] = system: SK-MES-1 (Squamous Cell Lung Carcinoma)
How it was run: as §1

[17] = system: SK-MG-1 (Low Grade Glioma)
How it was run: as §1

U-2-OS (Osteosarcoma) = system: U-2-OS (Osteosarcoma)
How it was run: as §1

Structure (SMILES)	Bliss excess [1]	Bliss excess [2]	Bliss excess [3]	Bliss excess [4]	Bliss excess [5]	Bliss excess [6]	Bliss excess [7]	Bliss excess (Hs-445 (Non-Cancerous))	Bliss excess [8]	Bliss excess [9]	Bliss excess (LN-405 (Glioblastoma))	Bliss excess [10]	Bliss excess [11]	Bliss excess [12]	Bliss excess [13]	Bliss excess [14]	Bliss excess [15]	Bliss excess [16]	Bliss excess [17]	Bliss excess (U-2-OS (Osteosarcoma))
Cc1cc2ncnn2cc1Nc1ncc2c(n1)n(C1CCOCC1)c(=O)n2C [AZD7648] + CN(C)CCCOc1ccc(-c2ccc3ncc4c(c3c2)n(C2CCOCC2)c(=O)n4C)cn1 [AZD0156] (first compound max 10 µM, 7x7, partner max 1 µM)	0.162	-0.0192	-0.0192	-0.0168	-0.0003	-0.0145	0.0025	-0.0388	0.0412	-0.138	-0.0215	-0.0133	-0.0072	0.0173	-0.026	0.0033	0.0339	0.0394	0.0047	0.0103
Cc1cc2ncnn2cc1Nc1ncc2c(n1)n(C1CCOCC1)c(=O)n2C [AZD7648] + C[C@@H]1COCCN1C2=NC(=NC(=C2)C3(CC3)[S@](=N)(=O)C)C4=C5C=CNC5=NC=C4 [AZD6738] (first compound max 10 µM, 7x7, partner max 10 µM)	-0.034	-0.0282	0.0114	0.022	0.0178	0.0794	0.0582	0.001	0.0038	-0.0856	-0.0881	0.0308	0.0034	0.0177	0.025	0.0088	0.0202	-0.0084	0.0011	0.0173
Cc1cc2ncnn2cc1Nc1ncc2c(n1)n(C1CCOCC1)c(=O)n2C [AZD7648] + O=C(c1cc(Cc2n[nH]c(=O)c3ccccc23)ccc1F)N1CCN(C(=O)C2CC2)CC1 [Olaparib] (first compound max 10 µM, 7x7, partner max 10 µM)	-0.0107	0.0613	-0.0548	-0.0757	-0.0546	-0.0115	-0.0305	0.0006	-0.0148	-0.0358	-0.0421	-0.0494	-0.0471	-0.0299	-0.0624	-0.0603	-0.0226	-0.0323	-0.0455	-0.0136
NC1(C(=O)N[C@@H](CCO)c2ccc(Cl)cc2)CCN(c2ncnc3[nH]ccc23)CC1 [Capivasertib] + CC(=O)c1c(C)c2cnc(Nc3ccc(N4CCNCC4)cn3)nc2n(C2CCCC2)c1=O [Palbociclib] (first compound max 10 µM, 7x7, partner max 10 µM)	0.0548	-0.103	-0.0329	-0.0164	-0.0025	-0.0495	-0.011	-0.0616	-0.0107	-0.012	-0.0295	-0.0223	0.0086	-0.0631	-0.033	-0.0936	0.0057	0.0137	-0.0303	0.0197
NC1(C(=O)N[C@@H](CCO)c2ccc(Cl)cc2)CCN(c2ncnc3[nH]ccc23)CC1 [Capivasertib] + CC(C)n1c(=O)n(C)c2cnc3cc(F)c(-c4ccc(OCCCN5CCCCC5)nc4)cc3c21 [AZD1390] (first compound max 10 µM, 7x7, partner max 0.3 µM)	0.0088	-0.0678	-0.018	-0.0651	-0.0514	-0.0137	-0.0231	-0.0763	-0.0888	-0.0685	-0.0912	-0.0219	-0.0285	-0.111	-0.0222	-0.0051	-0.0782	-0.0874	-0.111	-0.0453
NC1(C(=O)N[C@@H](CCO)c2ccc(Cl)cc2)CCN(c2ncnc3[nH]ccc23)CC1 [Capivasertib] + CCN(CCO)CCCOc1ccc2c(Nc3cc(CC(=O)Nc4cccc(F)c4)[nH]n3)ncnc2c1 [AZD2811] (first compound max 10 µM, 7x7, partner max 1 µM)	-0.0369	-0.0365	-0.0012	-0.0213	0.0065	-0.0183	-0.039	-0.0895	0.0082	-0.0291	-0.0767	0.0052	-0.0482	-0.0446	-0.0641	-0.0237	0.0229	0.0121	0.0626	-0.001
NC1(C(=O)N[C@@H](CCO)c2ccc(Cl)cc2)CCN(c2ncnc3[nH]ccc23)CC1 [Capivasertib] + COc1nnc2ccc(N3CCC(c4ccc(OCCN5CCN(C)C(=O)[C@H]5C)cc4)CC3)nn12 [AZD5153] (first compound max 10 µM, 7x7, partner max 1 µM)	-0.0363	-0.0345	0.024	-0.0143	-0.0176	0.0218	0.0708	-0.027	-0.0312	-0.0511	-0.013	0.0322	-0.0136	-0.0062	0.0135	0.0061	0.009	0.046	0.0477	0.0156
NC1(C(=O)N[C@@H](CCO)c2ccc(Cl)cc2)CCN(c2ncnc3[nH]ccc23)CC1 [Capivasertib] + C[C@@H]1COCCN1C2=NC(=NC(=C2)C3(CC3)[S@](=N)(=O)C)C4=C5C=CNC5=NC=C4 [AZD6738] (first compound max 10 µM, 7x7, partner max 10 µM)	-0.0165	-0.0414	-0.0608	-0.0194	-0.139	-0.0655	-0.0163	-0.0531	0.0036	-0.0575	-0.0413	-0.0754	-0.0332	-0.0526	-0.0782	0.0049	-0.0474	-0.058	-0.034	-0.0326
NC1(C(=O)N[C@@H](CCO)c2ccc(Cl)cc2)CCN(c2ncnc3[nH]ccc23)CC1 [Capivasertib] + Cn1cnc2c(F)c(Nc3ccc(Br)cc3Cl)c(C(=O)NOCCO)cc21 [Selumetinib] (first compound max 10 µM, 7x7, partner max 10 µM)	0.0622	0.0052	0.114	0.0332	0.0753	0.0166	0.0563	0.0479	0.0954	0.0608	-0.0051	-0.0203	-0.0165	-0.0375	-0.0867	-0.051	0.0089	0.0571	0.0059	0.0009
Cc1nc(Nc2ncc(C(=O)Nc3c(C)cccc3Cl)s2)cc(N2CCN(CCO)CC2)n1 [Dasatinib] + CC(=O)Nc1cccc(-n2c(=O)n(C3CC3)c(=O)c3c(Nc4ccc(I)cc4F)n(C)c(=O)c(C)c32)c1 [Trametinib] (first compound max 2 µM, 7x7, partner max 1 µM)	0.0863	0.0224	-0.0037	0.0749	-0.057	-0.0774	-0.0334	-0.0873	-0.117	-0.0371	-0.0347	-0.0167	-0.0644	0.0432	-0.0033	-0.0362	-0.0267	0.0198	-0.0654	-0.0411
COc1cccc2c1C(=O)c1c(O)c3c(c(O)c1C2=O)C[C@@](O)(C(=O)CO)C[C@@H]3O[C@H]1C[C@H](N)[C@H](O)[C@H](C)O1 [Doxorubicin] + Cc1cc2ncnn2cc1Nc1ncc2c(n1)n(C1CCOCC1)c(=O)n2C [AZD7648] (first compound max 1 µM, 7x7, partner max 10 µM)	0.0751	0.0564	0.0744	-0.0419	0.0481	0.0742	0.0602	0.102	0.063	0.0699	-0.0125	-0.0002	0.0129	0.036	-0.0396	0.0099	0.0937	0.0477	0.133	0.0234
COc1cc2ncnc(Nc3ccc(F)c(Cl)c3)c2cc1OCCCN1CCOCC1 [Gefitinib] + CC(C)n1c(=O)n(C)c2cnc3cc(F)c(-c4ccc(OCCCN5CCCCC5)nc4)cc3c21 [AZD1390] (first compound max 10 µM, 7x7, partner max 0.3 µM)	-0.0098	-0.0544	-0.013	-0.0652	-0.072	-0.0795	-0.0231	-0.0356	-0.0911	-0.0363	-0.076	-0.0477	-0.0064	-0.04	0.0099	-0.0464	-0.0627	-0.0755	-0.078	-0.0496
CS(=O)(=O)CCNCc1ccc(-c2ccc3ncnc(Nc4ccc(OCc5cccc(F)c5)c(Cl)c4)c3c2)o1 [Lapatinib] + C[C@@H](Oc1cc(-c2cnn(C3CCNCC3)c2)cnc1N)c1c(Cl)ccc(F)c1Cl [Crizotinib] (first compound max 10 µM, 7x7, partner max 10 µM)	0.0316	-0.0606	-0.0388	-0.0341	-0.0255	0.002	-0.0434	0.0147	-0.0008	-0.0649	-0.0158	0.0253	-0.0698	-0.0069	-0.0066	-0.0758	-0.0214	-0.0288	-0.0513	-0.0263
CC(=O)c1c(C)c2cnc(Nc3ccc(N4CCNCC4)cn3)nc2n(C2CCCC2)c1=O [Palbociclib] + CC1(C)CCC(CN2CCN(c3ccc(C(=O)NS(=O)(=O)c4ccc(NCC5CCOCC5)c([N+](=O)[O-])c4)c(Oc4cnc5[nH]ccc5c4)c3)CC2)=C(c2ccc(Cl)cc2)C1 [Venetoclax] (first compound max 10 µM, 7x7, partner max 1 µM)	-0.0332	-0.0056	-0.0319	-0.0473	-0.0761	0.0365	0.0269	0.119	-0.0127	0.0434	-0.0391	-0.051	-0.069	0.0079	-0.027	-0.0298	-0.0384	-0.0114	-0.0134	-0.0275

Reference: the supplement of paper PMC11061612
